Measurements from US20100297020A1, “PHOSPHORYLATED AND PHOSPHONATED PYRONE ANALOGS FOR THERAPEUTIC TREATMENT” (Limerick Biopharma, Inc., priority 2008, published 2010).

What was measured:
[1] = test system: cyclosporin treated Wistar rats; experiment: Islet histopathology and apoptosis in cyclosporine treated Wistar rats; format: in vivo; settings: cyclosporine 10 mg/kg PO, alone (Group-2) or with compound 1 30 mg/kg IP (Group-3)
[2] = test system: tacrolimus treated Wistar rats; experiment: Tacrolimus induced hyperglycemia in male Wistar rats; format: in vivo; settings: for plasma glucose levels by day-14: tacrolimus 2 mg/kg PO daily, alone or with compound 1 at 30, 10 and 3 mg/kg IP
male ZDF rats = experiment: 4-week study in male ZDF rats (compound 1)
[3] = test system: cyclosporin treated Wistar rats; experiment: Cyclosporine induced hyperglycemia in male Wistar rats; format: in vivo
[4] = test system: BB19 cells, human BCECs (brain capillary endothelial cells); experiment: Tacrolimus uptake assay; format: cell-based; settings: Endothelial cell, 1 h, 0.1 μM test compound, 1 hour incubation, 3H-tacrolimus 34 nM, read-out: cell associated ^3H-tacrolimus uptake, % of control
Procedure: (§1) BB19 cells, human BCECs (brain capillary endothelial cells) immortalized with the E6E7 genes of human papilloma virus, were kindly provided from Jacques G. Prudhomme, Department of Biology, University of California, Riverside, U.S.A. The cells were cultured as monolayer culture in Amniomax™-C100 basal medium (catalog number 17001-157) with Amniomax™-C100 supplement (catalog number 12556-049) (Invitrogen, Basel, CH).
(§2) Cells were seeded onto culture surfaces precoated with 10 μg/cm^2 rat tail collagen type I (BD Bioscience, Allschwil, CH) at a density of approximately 50′000 cells/cm^2 and were cultured in an incubator at 37° C. with 5% CO2, 95% fresh air and saturated humidity. For uptake assays, cells were seeded on precoated 96-well plates. Assays were performed at confluency, after 6 days in culture.
(§3) BB19 cells were seeded 50′000 cells/cm^2 on 96-well plates (Falcon) and incubated under condition described above for 6 days. Before starting the assay, cells were washed 2 times with pre-warmed Dulbecco's MEM with Glutamax-I (catalog number 61965) (Invitrogen AG, Basel, CH), supplemented with 1% non essential amino acids, 1% sodium pyruvate, 50 μg/ml gentamycin (Invitrogen AG) (DMEM). Cells were then incubated for 15 min at 37° C. and 120 rpm in DMEM with or without the specified concentrations of test compounds under investigation. After this pre-incubation, cells were incubated in DMEM containing [propyl-3H]-dihydro-FK506 (3H-tacrolimus, 1 μCi/ml, 34 nM) and with or without the specified concentrations of test compounds for 1 hour at 37° C. and 120 rpm. During this 1-hour incubation period, influx and efflux of the substrate, ^3H-tacrolimus, occur. After the 1-hour incubation period, assay was terminated by placing the assay plate on ice and washing the cells twice with ice-cold DMEM. Determination of cell associated ^3H-tacrolimus was performed by addition of Insta Gel and scintillation liquid to trypsinized cells followed by analysis on a scintillation counter (Packard TriCarb2000, Can berra Packard S.A.). The results are expressed as: % of control=100×[^3H-tacrolimus conc. with test compound]/[^3H-tacrolimus conc. with vehicle]

[5] = test system: BB19 cells, human BCECs (brain capillary endothelial cells); experiment: Cyclosporin uptake assay; format: cell-based; settings: 0.1 μM test compound; 1 hour incubation
Procedure: as §1, §2, §3
The cyclosporin uptake assay was performed similarly as described above for tacrolimus uptake assay except that ^3H-cyclosporin was used in place of ^3H-tacrolimus.

[6] = test system: rats treated with tacrolimus; experiment: Renal pathology in rats co-administered with tacrolimus; format: in vivo; settings: tacrolimus 0.5 mg/kg with vehicle or with Compound 2 at 11, 28 and 114 mg/kg, 25 days
Procedure: Tissue is removed from the kidney of rats treated with tacrolimus (Prograf®) at 0.5 mg/kg and inert vehicle, and from rats treated with tacrolimus (Prograf®) at 0.5 mg/kg and quercetin-3′-O-methylphosphonate (Compound 2) at 11 mg/kg, 28 mg/kg, and at 114 mg/kg for 25 days. […] The tissue from rats treated with Compound 2 and tacrolimus show no vacuoles.

[7] = compound 1 30 mg/kg, rosiglitazone 6 mg/kg, compared to vehicle

**Q.** With `O=c1c(OCP(=O)(O)O)c(-c2ccc(O)c(O)c2)oc2cc(O)cc(O)c12` [Compound 1, Quercetin-3-O-methylphosphonic acid] as the compound, how does the “number of apoptotic islet cells” value [1] read?
**A.** reduced the number of apoptotic cells to that of vehicle treated animals

**Q.** What about the “islet cell hyperplasia and degeneration/necrosis scores” value ([1]; score 0-4) of the same compound?
**A.** normalized the scores to that of vehicle treated animals

**Q.** And the “plasma insulin level during OGTT” value ([2]; 0, 15 and 30 minutes post glucose, compound 1 at all three dose levels with tacrolimus 2 mg/kg)?
**A.** higher than tacrolimus treated (group-2) or vehicle treated (Group-1) animals

**Q.** And the “plasma glucose level during OGTT” value ([2]; compound 1 30 mg/kg and 10 mg/kg IP with tacrolimus 2 mg/kg PO, day-15)?
**A.** a level similar to that of vehicle treated animals

**Q.** And the “plasma glucose levels by day-14” value [2]?
**A.** reduced tacrolimus induced hyperglycemia

**Q.** What about the plasma glucose levels (male ZDF rats; 4 weeks daily i.p., compound 1 30 and 10 mg/kg) of the same compound?
**A.** maintains a lower plasma glucose level than vehicle treatment

**Q.** What about the “glycated hemoglobin levels (% HbA1c) at termination” value (male ZDF rats; [7]) of the same compound?
**A.** significantly lower glycated hemoglobin levels

**Q.** What about the pancreatic insulin levels (male ZDF rats; [7]) of the same compound?
**A.** significantly higher than that of the vehicle treated animals

**Q.** What about the “plasma insulin levels, fed and fasting” value (male ZDF rats; day-28 and day-29) of the same compound?
**A.** significantly higher plasma insulin levels under both fed and fasting conditions

**Q.** What about the liver triglyceride (male ZDF rats; four weeks of daily treatment) of the same compound?
**A.** did not increase liver triglyceride

**Q.** What about the “plasma glucose during OGTT” value (male ZDF rats; oral glucose 2 g/kg, day-29 after 12-hr fast, 15, 30, 60, 90 minutes) of the same compound?
**A.** maintain lower plasma glucose level during OGTT

**Q.** And the “plasma glucose level during OGTT” value ([3]; compound 1 30 mg/kg IP with cyclosporine 10 mg/kg PO, day-15)?
**A.** a level similar to that of vehicle treated animals

**Q.** What about the “plasma glucose levels by day-14” value ([3]; cyclosporine 10 mg/kg PO daily, alone or with compound 1 at 30, 10 and 3 mg/kg IP) of the same compound?
**A.** reduced cyclosporine induced hyperglycemia

**Q.** What about the “plasma glucose levels by day-14” value ([3]; cyclosporine 10 mg/kg PO with compound 1 at 30 mg/kg IP) of the same compound?
**A.** completely prevented cyclosporine induced hyperglycemia

**Q.** How did the activity at 0.1 µM [4] turn out when `O=c1c(O)c(-c2ccccc2)oc2cc(OCP(=O)(O)O)cc(O)c12` [Compound 10, (3,5-Dihydroxy-4-oxo-2-phenyl-4H-chromen-7-yloxy)methylphosphonic acid] was run?
**A.** 51%

**Q.** Which results are given for `O=c1c(O)c(-c2ccc(OCP(=O)(O)O)cc2)oc2cc(O)cc(O)c12` [Compound 11, (4-(3,5,7-Trihydroxy-4-oxo-4H-chromen-2-yl)phenoxy)methylphosphonic acid]?
**A.** activity at 0.1 µM [4]: 49%; cell associated ^3H-cyclosporin uptake, % of control [5]: 78 % of control

**Q.** With `O=c1c(O)c(-c2ccccc2)oc2cc(O)cc(OCP(=O)(O)O)c12` [Compound 16, (3,7-Dihydroxy-4-oxo-2-phenyl-4H-chromen-5-yloxy)methylphosphonic acid] as the compound, how does the activity at 0.1 µM [4] read?
**A.** 54%

**Q.** What does the source list for `O=c1c(O)c(-c2ccc(O)c(OCP(=O)(O)O)c2)oc2ccccc12` [Compound 18, (2-Hydroxy-5-(3-hydroxy-4-oxo-4H-chromen-2-yl)phenoxy)methylphosphonic acid]?
**A.** activity at 0.1 µM [4]: 66%; cell associated ^3H-cyclosporin uptake, % of control [5]: 77 % of control

**Q.** How did the activity at 0.1 µM [4] turn out when `O=c1c(OCP(=O)(O)O)c(-c2ccc(O)c(O)c2)oc2ccccc12` [Compound 20, (2-(3,4-Dihydroxyphenyl)-4-oxo-4H-chromen-3-yloxy)methylphosphonic acid] was run?
**A.** 62%

**Q.** And the “cell associated ^3H-cyclosporin uptake, % of control” value [5]?
**A.** 77 % of control

**Q.** Which “plasma glucose levels by day-14” value [2] does the source give for `C=CC[C@@H]1/C=C(\C)C[C@H](C)C[C@H](OC)[C@H]2O[C@@](O)(C(=O)C(=O)N3CCCC[C@H]3C(=O)O[C@H](/C(C)=C/[C@@H]3CC[C@@H](O)[C@H](OC)C3)[C@H](C)[C@@H](O)CC1=O)[C@H](C)C[C@@H]2OC` [Tacrolimus, tacrolimus, reference compound] here?
**A.** induced hyperglycemia is clearly demonstrated

**Q.** And the “vacuolation of kidney tissue” value [6]?
**A.** significant vacuolation
